Data published in the NIST ThermoML archive (doi:10.1016/j.fluid.2010.01.027).

Conditions: for mass density: Vibrating tube method

FC(F)(F)C(F)(F)C(F)(F)C(F)(F)F [decafluorobutane]
speed of sound [m/s], Gas, sonar gas analyzer
Conditions	10 kPa	20 kPa	30 kPa	50 kPa	70 kPa	100 kPa	150 kPa	200 kPa	250 kPa	300 kPa
248.7 K	95.1	94.56	93.98	–	–	–	–	–	–	–
257.7 K	96.57	96.22	95.7	94.78	–	–	–	–	–	–
271.3 K	99.26	98.71	98.33	97.39	96.39	94.79	–	–	–	–
281.5 K	101.05	100.64	100.23	99.38	98.4	97.04	95.08	–	–	–
293.1 K	103.02	102.7	102.37	101.71	100.86	99.66	97.68	95.63	–	–
303.1 K	104.78	104.57	104.25	103.35	103.06	103.05	99.91	98.41	96.5	94.89

FC(F)(F)C(F)(F)C(F)(F)C(F)(F)C(F)(F)C(F)(F)C(F)(F)F [hexadecafluoroheptane]
101.33 kPa, Liquid
Conditions	mass density [kg/m3]
278.15 K	1769.3
288.15 K	1751
298.15 K	1728.4
308.15 K	1700.8
318.15 K	1672.7
328.15 K	1641.9
333.15 K	1629.4

101.33 kPa, Liquid, sound analyzer
Conditions	speed of sound [m/s]
278.15 K	608.3
288.15 K	578.42
298.15 K	548.73
308.15 K	517.47
318.15 K	500.56
328.15 K	470.6
333.15 K	457.24

FC(F)(F)C(F)(F)C(F)(F)C(F)(F)C(F)(F)C(F)(F)C(F)(F)C(F)(F)F [octadecafluorooctane]
101.33 kPa, Liquid
Conditions	mass density [kg/m3]
278.15 K	1810
288.15 K	1786.7
298.15 K	1760.6
308.15 K	1735
318.15 K	1708.6
328.15 K	1681.6
338.15 K	1656.4

101.33 kPa, Liquid, sound analyzer
Conditions	speed of sound [m/s]
278.15 K	640.32
288.15 K	610.05
298.15 K	581.94
308.15 K	552.33
318.15 K	524.1
328.15 K	508.43
338.15 K	479.24

FC(F)(F)C(F)(F)C(F)(F)F [octafluoropropane]
speed of sound [m/s], Gas, sonar gas analyzer
Conditions	248.2 K	259.8 K	270.2 K	272.6 K	283.2 K	296.1 K	303.9 K
10 kPa	107.9	–	112.31	–	–	–	119.13
20 kPa	107.6	110	111.99	–	114.63	–	118.98
30 kPa	107.25	109.59	111.77	–	114.12	–	118.79
50 kPa	106.56	108.88	111.27	–	113.84	116.81	118.42
70 kPa	105.77	108.23	110.9	–	113.1	116.31	118.04
100 kPa	104.62	107.27	–	110.29	112.46	115.55	117.43
150 kPa	102.76	105.51	–	108.59	111.28	114.42	116.26
200 kPa	–	103.72	–	106.9	109.88	113.23	115.36
250 kPa	–	101.83	–	105.22	108.56	111.94	114.31
300 kPa	–	–	–	103.59	107.1	110.7	113.14
350 kPa	–	–	–	101.9	105.61	109.43	112
400 kPa	–	–	–	100.27	103.99	108.12	110.63

FC(F)(F)C(F)(F)C(F)(F)C(F)(F)C(F)(F)C(F)(F)F [perfluorohexane]
101.33 kPa, Liquid
Conditions	mass density [kg/m3]
278.15 K	1739.8
288.15 K	1712.7
298.15 K	1682.8
308.15 K	1651.9

101.33 kPa, Liquid, sound analyzer
Conditions	speed of sound [m/s]
278.15 K	571.89
288.15 K	540.31
298.15 K	510.7
